Experimental data: patent publication US10471043B2, “Compounds and methods of treating bacterial infections” (ULTUPHARMA AB, priority 2015, dated 2019)
Read-outs that look alike come from different tables or passages of the source.

Experiments:
HepG2 cells = settings: human, 48 h
in vitro [1] = settings: human, CC50 (μg/mL)
P. aeruginosa = assay: MIC panel of Gram-negative bacteria (Table 7); format: cell-based; settings: Pseudomonas aeruginosa
A. baumannii = assay: MIC by broth micro-dilution; format: cell-based; settings: A. baumannii (G−), Table 2
M. frederiksbergense = assay: MIC by broth micro-dilution; format: cell-based; settings: Table 4; read-out: MIC (μg/ml) M. frederiksbergense
Bacillus cereus = assay: MIC by broth micro-dilution; format: cell-based; settings: Table 4, read-out: MIC (μg/ml) B. cereus
A. Pittii/nosocomialis = assay: MIC panel of Gram-negative bacteria (Table 7); format: cell-based; settings: Acinetobacter pittii; EN0180 A. Pittii/nosocomialis G−
[2] = tested on: mupirocin-resistant strains of Staphylococcus aureus; assay: MIC against mupirocin-resistant strains; format: cell-based; settings: Staphylococcus aureus; S. aureus V55, mupirocin-resistant; read-out: MIC
Procedure: At first (Table 1), MIC is determined by broth micro-dilution method. The test medium is Antibiotic Medium 3 (AM3; Difco Ltd) mixed with Phosphate Buffered Saline (PBS) in proportions 1:1. Selected MIC values are verified using cation-adjusted Mueller Hinton Broth (MHB; BD). Cell concentration of tested pathogen is adjusted to between 3 and 5×10^5 cells per ml. To verify cell concentration of tested pathogen, viable cell counts are performed directly after each MIC-test by dilution method with PBS as a dilution solvent. Cells are counted on the agar plates with 50% strength Vegetable Peptone Broth (50% VPB; Oxoid Ltd) after 16 to 20 h of incubation at 37° C.
Cells of pathogen suspended in test medium are distributed to the wells and the plates are incubated for 16 to 20 h at 37° C. Negative controls are wells with the test medium only and positive controls are wells with the pathogen in test medium. The MIC is defined as the lowest concentration of each compound with no visible growth of pathogen.

[3] = tested on: Staphylococcus aureus strain LMG15975; assay: MIC by broth micro-dilution, AM3/PBS 1:1; format: cell-based
How it was run: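 Broth microdilution in AM3:PBS 1:1 (selected values checked in cation-adjusted MHB), inoculum 3-5×10^5 cells/ml, 16-20 h at 37 °C. MIC is the lowest concentration giving no visible growth.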

S. typhimurium = assay: MIC panel of Gram-negative bacteria (Table 7); format: cell-based; settings: Salmonella enterica; EN0466 S. typhimurium G− TH6509
Micrococcus luteus = assay: MIC panel of Gram-negative bacteria (Table 7); format: cell-based; settings: EN0455 Micrococcus luteus G+ PKL 3693
S. epidermidis [4] = assay: Antimicrobial Susceptibility Test by Broth Microdilution, M07-A9 CLSI; format: cell-based; settings: Staphylococcus epidermidis
E. faecalis = assay: as above; format: cell-based; settings: Enterococcus faecalis
Citrobacter sp. = assay: MIC panel of Gram-negative bacteria (Table 7); format: cell-based; settings: EN0465 Citrobacter sp. G− PKL 3710
Enterobacter aerogenes = assay: MIC panel of Gram-negative bacteria (Table 7); format: cell-based; settings: Klebsiella aerogenes; EN0461 Enterobacter aerogenes G− PKL 3706
A. baumanii = assay: MIC panel of Gram-negative bacteria (Table 7); format: cell-based
S. epidermidis [5] = assay: MIC panel of Gram-negative bacteria (Table 7); format: cell-based; settings: Staphylococcus epidermidis; EN0456 S. epidermidis G+ PKL 3694
E. faecium = assay: Antimicrobial Susceptibility Test by Broth Microdilution, M07-A9 CLSI; format: cell-based
K. pneumoniae = assay: MIC panel of Gram-negative bacteria (Table 7); format: cell-based; settings: Klebsiella pneumoniae
K. oxytoca = assay: MIC panel of Gram-negative bacteria (Table 7); format: cell-based; settings: Klebsiella oxytoca; EN0392 K. oxytoca G−
S. pneumoniae = assay: Antimicrobial Susceptibility Test by Broth Microdilution, M07-A9 CLSI; format: cell-based; settings: Streptococcus pneumoniae
E. coli = assay: MIC panel of Gram-negative bacteria (Table 7); format: cell-based; settings: Escherichia coli
S. pyogenes = assay: Antimicrobial Susceptibility Test by Broth Microdilution, M07-A9 CLSI; format: cell-based; settings: Streptococcus pyogenes
Serratia marescens = assay: MIC panel of Gram-negative bacteria (Table 7); format: cell-based; settings: EN0454 Serratia marescens G− PKL 3692
in vitro [6] = settings: human, Caco-2
Proteus mirabilis = assay: MIC panel of Gram-negative bacteria (Table 7); format: cell-based

CCCCCCCCCC1CC(O)=C(C(=O)CCC)C(=O)O1 (centres unmarked) [Ex. 1, 3-Butyryl-6-nonyl-4-hydroxy-5,6-dihydro-2H-pyran-2-one]
≤ 0.5 µg/mL: MIC (M. frederiksbergense)
≤ 1 µg/mL: MIC (Bacillus cereus)
1 µg/mL: MIC (S. epidermidis [4]; S. epidermidis RO7, MSSE, Table 6) | MIC (S. epidermidis [4]; S. epidermis RO7, Methicillin-sensitive, Table 5) | MIC (S. epidermidis [5])
0.8 µg/mL: MIC ([3]; LMG15975, S. aureus (G+), Table 2, read-out: MIC (μg/ml) S. aureus) | MIC ([3]; LMG15975, S. aureus LMG 15975 (SLU), Methicillin-resistant, Table 5, read-out: MIC (μg/mL)) | MIC ([3]; LMG15975, S. aureus LMG15975, Table 1, read-out: MIC (μg/ml)) | MIC ([3]; LMG15975, Table 4, read-out: MIC (μg/ml) S. aureus)
33 µM: CC50 at 48 h (in vitro [1])
38 µM: CC50 (HepG2 cells)
16 to 24 µg/mL: MIC (A. baumannii; Acinetobacter baumannii, read-out: MIC (μg/ml) A. baumannii)
> 64 µg/mL: MIC (P. aeruginosa; EN004 P. aeruginosa WT, ENABLE Primary MIC panel) | MIC (P. aeruginosa; EN0014 P. aeruginosa, ENABLE L2C MIC panel) | MIC (P. aeruginosa; EN0015 P. aeruginosa Efflux mut, ENABLE L2C MIC panel) | MIC (P. aeruginosa; EN0422 P. aeruginosa G−) | MIC (P. aeruginosa; EN0459 P. aeruginosa G− PKL 3699) | MIC (P. aeruginosa; EN0460 P. aeruginosa G− PKL 3704) | MIC (A. Pittii/nosocomialis) | MIC (S. typhimurium) | MIC (Citrobacter sp.) | MIC (Enterobacter aerogenes) | MIC (A. baumanii; Acinetobacter baumannii, EN007 A. baumanii WT, ENABLE Primary MIC panel, read-out: MIC) | MIC (K. pneumoniae; EN006 K. pneumoniae WT, ENABLE Primary MIC panel) | MIC (K. pneumoniae; EN0010 K. pneumoniae, ENABLE L2C MIC panel (isogenic efflux pairs)) | MIC (K. oxytoca) | MIC (E. coli; EN001 E. coli WT, ENABLE Primary MIC panel) | MIC (E. coli; EN003 E. coli D22 (lps mut), ENABLE Primary MIC panel) | MIC (E. coli; EN0012 E. coli, ENABLE L2C MIC panel) | MIC (E. coli; EN0458 E. coli B G− PKL 3698) | MIC (Serratia marescens) | MIC (Proteus mirabilis; EN0457 Proteus mirabilis G− PKL 3695, read-out: MIC)
4 µg/mL: MIC (S. pneumoniae; ATCC49619, S. pneumoniae ATCC 49619, QC strain) | MIC (S. pneumoniae; S. pneumoniae 158bg, Macrolide-resistant (M)) | MIC (S. pneumoniae; S. pneumoniae 956, Macrolide-resistant (MLSc)) | MIC (S. pneumoniae; S. pneumoniae TE 122-026, Tetracycline-resistant) | MIC (E. coli; EN002 E. coli DtolC, ENABLE Primary MIC panel)
2.5 µM: MIC ([3]; LMG15975, S. aureus LMG15975, Table 1, read-out: MIC)
8 to 16 µg/mL: MIC (μg/ml) A. baumannii (A. baumannii)
8 µg/mL: MIC (K. pneumoniae; EN0011 K. pneumoniae Efflux mut, ENABLE L2C MIC panel) | MIC (S. pneumoniae; BAA1407, S. pneumoniae BAA1407, Macrolide-resistant (M + MLS)) | MIC (S. pneumoniae; S. pneumoniae 19A-TN, Quinolone-sensitive) | MIC (S. pneumoniae; S. pneumoniae SP030, Macrolide- sensitive) | MIC (S. pneumoniae; S. pneumoniae TE 122-024, Quinolone-resistant) | MIC (S. pyogenes; S. pyogenes 2 Finland, Macrolide-resistant (M)) | MIC (S. pyogenes; S. pyogenes 29A-TF, Macrolide- sensitive) | MIC (S. pyogenes; S. pyogenes 21 Finland, Macrolide-resistant (MLSc))
>64 µg/mL: MIC (A. baumanii; EN0016 A. baumanii, ENABLE L2C MIC panel) | MIC (A. baumanii; EN0017 A. baumanii Efflux mut, ENABLE L2C MIC panel) | MIC (Proteus mirabilis; EN0445 P. mirabilis ST19 G−)
2 µg/mL: MIC (P. aeruginosa; EN005 P. aeruginosa Efflux mut, ENABLE Primary MIC panel) | MIC (S. epidermidis [4]; MRSE, S. epidermidis TA12, MRSE, Table 6) | MIC (S. epidermidis [4]; S. epidermis TA12, Methicillin-resistant, Table 5) | MIC (E. faecalis; E. faecalis E.cocco 12, Vancomycin -resistant) | MIC (E. faecalis; E. faecalis E.cocco 24, Vancomycin -sensitive, Table 6) | MIC (E. faecalis; E. faecalis 24, Vancomycin-sensitive, Table 5) | MIC (E. faecium; E. faecium E.coc 7, Vancomycin -resistant, Table 6) | MIC (E. faecium; Enterococcus faecium, E. faecium 7, Vancomycin-resistant, Table 5, read-out: MIC)
53 ×10⁻⁶ cm/s: Papp at 120 min, 10 μM (in vitro [6])
≤ 0.1 µg/mL: MIC [2]
0.5 µg/mL: MIC (Micrococcus luteus) | MIC (E. coli; EN0013 E. coli Del-tolC, ENABLE L2C MIC panel)
